Results as given in ChEMBL document CHEMBL1144003, “Trypanocidal activity of a new pterocarpan and other secondary metabolites of plants from Northeastern Brazil flora” (Bioorg Med Chem, 2008).
Values after ≈ are worked out from the molar mass of the structure shown.

Experiments:
[1] = tested on: Trypanosoma cruzi; experiment: Trypanocidal activity against Trypanosoma cruzi Berenice after 72 hrs; format: functional, organism-based
[2] = tested on: PBL; experiment: Cytotoxicity against human PBL cells after 72 hrs by alamar blue assay; format: cell-based
[3] = tested on: B16; experiment: Antiproliferative activity against mouse B16 cells; format: functional, cell-based
[4] = tested on: HCT-8; experiment: Antiproliferative activity against human HCT8 cells; format: functional, cell-based
[5] = tested on: CCRF-CEM; experiment: Antiproliferative activity against human CEM cells; format: functional, cell-based
[6] = tested on: HL-60; experiment: Antiproliferative activity against human HL60 cells; format: functional, cell-based

SMILES: CC(C)=CCC/C(C)=C/Cc1c(O)ccc(C(=O)/C=C/c2ccc(O)c(O)c2)c1O
- IC50 [1]: 10.6 µg/mL (≈ 25.9 µM)
- IC50 [2]: 23 µg/mL (≈ 56.4 µM)

SMILES: CC(C)=CCc1c(O)ccc2c1OC[C@H]1c3cc4c(cc3O[C@@H]21)OCO4
- IC50 [1]: 13.3 µg/mL (≈ 37.7 µM)
- IC50 [2]: > 50 µg/mL

SMILES: CC(C)=CCC/C(C)=C/Cc1cc2c(cc1O)OC[C@H]1c3cc4c(cc3O[C@@H]21)OCO4
- IC50 [1]: 12.2 µg/mL (≈ 29 µM)
- IC50 [2]: > 50 µg/mL

SMILES: COC1=C(OC)C(=O)C2=C(C[C@H]3[C@](C)(C2)C[C@@H]2C[C@@]23C)C1=O (relative stereo)
- IC50 [1]: 1.3 µg/mL (≈ 4.3 µM)
- IC50 [2]: 28.4 µg/mL (≈ 93.8 µM)

SMILES: COc1cccc2c1C(=O)c1c(O)c3c(c(O)c1C2=O)C[C@@](O)(C(=O)CO)C[C@@H]3O[C@H]1C[C@H](N)[C@H](O)[C@H](C)O1 [DOXORUBICIN]
- IC50 [2]: 0.97 µg/mL (≈ 1.78 µM)

SMILES: C[C@@]12C[C@H]3OC(=O)[C@@H]1CO[C@]14O[C@]5([C@H]2C1=O)[C@@](O)(CC[C@H]1[C@H]4C[C@H]2O[C@]24CC=CC(=O)[C@]14C)C(=O)O[C@@]35C [PHYSALIN F]
- IC50 [1]: 9.4 µg/mL (≈ 17.9 µM)
- IC50 [2]: 4.23 µg/mL (≈ 8.03 µM)
- IC50 [3]: 0.5 µg/mL (≈ 0.95 µM)
- IC50 [4]: 0.5 µg/mL (≈ 0.95 µM)
- IC50 [5]: 0.5 µg/mL (≈ 0.95 µM)
- IC50 [6]: 0.5 µg/mL (≈ 0.95 µM)

SMILES: CC1=C(C)C(=O)O[C@@H]([C@]2(C)OC(=O)[C@]34CC[C@H]5[C@@H](C[C@H]6O[C@]67[C@@H](O)C=CC(=O)[C@]57C)[C@@H]3CC[C@H]24)C1 [WITHAPHYSALIN M]
- IC50 [1]: 0.7 µg/mL (≈ 1.45 µM)

SMILES: CC1=C(C)C(=O)O[C@@H]([C@]2(C)OC(=O)[C@]34CC[C@H]5[C@@H](C[C@H]6O[C@]67[C@@H](O)CCC(=O)[C@]57C)[C@@H]3CC[C@H]24)C1 [WITHAPHYSALIN N]
- IC50 [1]: 6.4 µg/mL (≈ 13.2 µM)

SMILES: CCOC1O[C@@](C)([C@H]2CC(C)=C(C)C(=O)O2)[C@H]2CC[C@H]3[C@@H]4C[C@H]5O[C@]56[C@@H](O)C=CC(=O)[C@]6(C)[C@H]4CC[C@]123 (stereo partly drawn) [WITHAPHYSALIN O]
- IC50 [1]: 0.3 µg/mL (≈ 0.585 µM)
